One data set has as its target T1, NLRP3 (Homo sapiens, UniProt Q96P20).
T1 construct: endogenous in cells
Put plainly: Human whole blood (hWB) NLRP3 assay. The class given is cell-based. The conditions noted are these: LPS priming 1 μg/ml, ATP activation, read-out: hWB IC50 (raw activity data). On the procedure:
Heparin lithium coated tubes were used to collect blood from volunteers. Blood samples were distributed on 96 well plates using 90 μl per well. Priming was performed by adding 5 μl of LPS (O26:B6; Sigma L-2654) at a final concentration of 1 μg/ml for 4.5 hours in a humidified incubator with 37° C., 5% CO2. Thirty minutes prior to NLRP3 activation, 5 μl of a 20× compound solution or vehicle (2% DMSO) was added to each well and plates were incubated on a shaker (450 rpm) in a humidified incubator with 37° C., 5% CO2. Activation was then performed by adding 3.3 μl of a 31×ATP solution per well. At the end of the 30 minutes stimulation, the plates were centrifuged (800 g, 10 min. room temperature) and the plasma from each well was frozen at −80° C. […] levels in the supernatant were analyzed using a mesoscale discovery assay (MSD K151TUK) according to the manufacturers' instructions. Human whole blood was drawn from healthy volunteers after obtaining written informed consent.
Table D assigns each compound a code for potency in the human whole blood (hWB) NLRP3 Assay: A or B. According to the code. […] The corresponding raw activity data is also included.

Data set [1] can be described thus: Brain levels (kp and kpu,u) after oral administration. The note with it: mice, 20 mpk PO; for Kp at 24 h / Kpu,u (unbound brain-to-plasma ratio): CDI, mouse, brain / plasma, po, 20 mg/kg; for Kp at 24 h: whole brain AUC over 24 h divided by plasma AUC; for Kpu,u (unbound brain-to-plasma ratio) / kpu,u (code): kp corrected with mouse plasma protein binding and mouse brain homogenate binding. The class given is in vivo, CDI mice. As to the method:
The in vivo total brain to plasma ratio was assessed in CDI mice after oral administration of the compound. Blood was collected at several timepoints up to 24 h, and transferred into plastic micro centrifuge tubes with EDTA-K2 as anticoagulant. Blood samples were centrifuged at 4000 g for 5 minutes at 4° C. to obtain plasma, then immediately frozen and stored at −75±15° C. prior to analysis. Animals were terminally anaesthetized with a rising concentration of CO2 gas at about 1 minute. At selected timepoints, whole brains were removed from the skull, rinsed in cold PBS to remove blood, dried with clean gauze, then frozen in liquid nitrogen and kept at −75±15° C. before analysis. At the time of analysis, brain samples were homogenized with PBS by tissue weight (g) to PBS volume (mL) ratio 1:3. Plasma and brain drug levels were quantified by LC/MS/MS on a AB Sciex Triple Quad 5500+ instrument, after separation on a HALO 160A ES-C18, 2.7 μm 2.1-50 mm column. Quantitation was performed using a calibration curve prepared in blank plasma or blank brain homogenate. The software WinNonlin (Phoenix™) was used for pharmacokinetic analysis from the concentrations versus time data, including the AUCinf and AUClast. The Kp ratio (total brain concentration over total plasma concentration) was calculated as (AUCtot,br)/(AUCtot,pl).
The unbound brain exposure was assessed as Kpuu, which is the free brain/free plasma concentration ratio (Cu,br/Cu,pl). The Cu,br/Cu,pl ratios were obtained from in vivo total brain to plasma ratios (Ctot,br/Ctot,pl) by using in vitro determined Fu,br and Fu,pl.
Plasma protein binding and brain homogenate protein binding were measured by equilibrium dialysis in a HTDialysis plate. The dialysis membranes were soaked in ultrapure water for 60 minutes to separate strips, then in 20% ethanol for 20 minutes, finally in dialysis buffer for 20 minutes. The dialysis set up was assembled according to the manufacturer's instruction. Each cell received 150 μL of plasma or brain homogenate spiked with 1 mM of compound, and dialyzed against an equal volume of dialysis buffer (PBS). The dialysis plate was sealed and incubated in an incubator at 37° C. with 5% CO2 at 100 rpm for 6 hours. At the end of incubation, compound concentration was measured in both chambers by LC-MS/MS on a Triple Quad™ 5500 from AB Inc after separation on a XSelect Hss T3 2.5μ (2.1×30 mm) column. Free fraction (Fu) was calculated as (Peak Area Ratio buffer chamber/Peak Area Ratio plasma chamber).
Kpuu was calculated as (AUCtot,br×Fu,br)/(AUCtot,pl×Fu,pl).
The below table also assigns each compound a code for kp and kpu,u values: A or B. According to the code. A represents a value of >0.3 and B represents a value of ≤0.3. […] The kpu,u was then calculated upon correcting this kp value with mouse plasma protein binding and mouse brain homogenates binding. A Kpu,u value >0.3 is brain penetrant, and Kpu,u value less than or equal to 0.3 is not brain penetrant. N.D.=not determined. The corresponding raw kp and kpu,u data is also included.

pIC50: −log10 of the molar value. Like-named read-outs stand apart in the source and are kept apart here.

T1 sequence (Q96P20 whole entry): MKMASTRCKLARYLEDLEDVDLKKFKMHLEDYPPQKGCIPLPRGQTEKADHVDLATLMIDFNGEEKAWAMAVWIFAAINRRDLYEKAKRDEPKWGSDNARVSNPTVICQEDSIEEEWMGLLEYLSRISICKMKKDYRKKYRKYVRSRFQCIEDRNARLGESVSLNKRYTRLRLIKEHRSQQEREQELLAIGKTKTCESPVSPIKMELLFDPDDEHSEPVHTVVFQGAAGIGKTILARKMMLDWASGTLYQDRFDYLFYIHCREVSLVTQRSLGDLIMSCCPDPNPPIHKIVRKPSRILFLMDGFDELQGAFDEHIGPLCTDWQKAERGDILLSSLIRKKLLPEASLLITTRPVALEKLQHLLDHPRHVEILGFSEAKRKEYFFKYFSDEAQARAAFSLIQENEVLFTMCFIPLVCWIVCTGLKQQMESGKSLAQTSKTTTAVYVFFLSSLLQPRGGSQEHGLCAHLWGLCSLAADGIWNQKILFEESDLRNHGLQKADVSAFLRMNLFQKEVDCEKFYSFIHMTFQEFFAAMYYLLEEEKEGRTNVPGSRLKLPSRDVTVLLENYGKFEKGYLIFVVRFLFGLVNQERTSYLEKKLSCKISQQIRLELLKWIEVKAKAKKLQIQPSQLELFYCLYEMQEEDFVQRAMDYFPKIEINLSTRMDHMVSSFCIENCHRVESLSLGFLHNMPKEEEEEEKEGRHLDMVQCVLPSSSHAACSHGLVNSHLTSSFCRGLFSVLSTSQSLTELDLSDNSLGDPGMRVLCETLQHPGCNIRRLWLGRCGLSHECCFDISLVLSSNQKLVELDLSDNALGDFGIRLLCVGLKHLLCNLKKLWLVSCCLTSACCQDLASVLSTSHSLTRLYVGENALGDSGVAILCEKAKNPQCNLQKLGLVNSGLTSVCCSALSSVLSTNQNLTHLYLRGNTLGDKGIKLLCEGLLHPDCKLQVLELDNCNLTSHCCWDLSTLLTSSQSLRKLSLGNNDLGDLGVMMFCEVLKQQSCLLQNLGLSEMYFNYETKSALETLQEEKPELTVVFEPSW

Consider `CC1(C)C[C@@H](Nc2nnc(-c3ccc(C(F)(F)F)cc3O)c3ccncc23)CCO1` (single isomer, unassigned) [Compound 11*], for which, at NLRP3, the negative-log IC50 (pIC50) (commonly the IC50 on a negative log10 scale, so that one unit is a factor of ten) was 5.85. Further, in data set [1] (read-out: kp (code)), the partition ratio (Kp) (in general, tissue or fluid exposure divided by exposure in the circulation) at 24 h is more than 0.3. For the same compound, in data set [1] (read-out: kp (raw)), the Kp at 24 h amounted to 0.96. Besides, in data set [1], the Kpu,u (unbound brain-to-plasma ratio) stood at 1.3 and the “kpu,u (code)” value is “A (A represents a value of >0.3)”.
For the compound `OCC1(CNc2nnc(-c3ccc(Cl)cc3O)c3ccncc23)CC1` [Compound 8, 5-chloro-2-(4-(((1-(hydroxymethyl)cyclopropyl)methyl)amino)pyrido[3,4-d]pyridazin-1-yl)phenol, reference compound], the pIC50 at NLRP3 was 6.70. For the same compound, the concentration ratio (Kp) at 24 h in data set [1] (read-out: kp (raw)) is 0.18. In addition, in data set [1], the Kpu,u (unbound brain-to-plasma ratio) was 0.11 and the “kpu,u (code)” value is reported as “B (B represents a value of ≤0.3)”.
On to `Cc1ccc(-c2nnc(N[C@@H]3CCC(C)(C)OC3)c3cnccc23)c(O)c1` (single isomer, unassigned) [Compound 10B*], for which the pIC50 at NLRP3 is 5.10.
With `Cc1ccc(-c2nnc(N[C@@H]3CCOCC3(C)C)c3cnccc23)c(O)c1` (single isomer, unassigned) [Compound 13B], the pIC50 at NLRP3 was 5.01.
For the compound `CN1CCO[C@@H](CNc2nnc(-c3ccc(C(F)(F)F)cc3O)c3ccncc23)C1` (single isomer, unassigned) [Compound 6*], the pIC50 at NLRP3 was 6.37. Further, the concentration ratio (Kp) at 24 h in data set [1] (read-out: kp (code)) is more than 0.3. The Kp at 24 h in data set [1] (read-out: kp (raw)) was 0.66. In data set [1], the Kpu,u (unbound brain-to-plasma ratio) amounted to 2.3 and the “kpu,u (code)” value is recorded as “A (A represents a value of >0.3)”.
On to `CC1(C)C[C@H](Nc2nnc(-c3ccc(C(F)F)cc3O)c3ccncc23)CCO1` (single isomer, unassigned) [Compound 16B*], for which the pIC50 at NLRP3 was 4.92.
As for `CC1(C)CC[C@H](Nc2nnc(-c3ccc(C(F)F)cc3O)c3ccncc23)CO1` (single isomer, unassigned) [Compound 20], on NLRP3, the negative-log IC50 (pIC50) is 6.05. Besides, the Kp at 24 h in data set [1] (read-out: kp (code)) is more than 0.3. In data set [1] (read-out: kp (raw)), the Kp at 24 h is 0.61. Besides, in data set [1], the Kpu,u (unbound brain-to-plasma ratio) was 0.46 and the “kpu,u (code)” value was “A (A represents a value of >0.3)”.
As for `CC1(C)COCC[C@H]1Nc1nnc(-c2ccc(Cl)cc2O)c2ccncc12` (single isomer, unassigned) [Compound 3B*], the negative logarithm of the IC50 (pIC50) at NLRP3 is 4.96.
For `CC1(C)COCC[C@H]1Nc1nnc(-c2ccc(C(F)(F)F)cc2O)c2ccncc12` (single isomer, unassigned) [Compound 15B], on NLRP3, the pIC50 is 4.74.
The same measure, in the same setting: the value for `C[C@H]1C[C@@H](Nc2nnc(-c3ccc(Cl)cc3O)c3ccncc23)CCO1` (single isomer, unassigned) [Compound 25B*] was 6.07.
Take `Cc1ccc(-c2nnc(N[C@H]3CCOC(C)(C)C3)c3cnccc23)c(O)c1` (single isomer, unassigned) [Compound 14]: the pIC50 at NLRP3 is 6.29. Further, the Kp at 24 h in data set [1] (read-out: kp (code)) is more than 0.3. In addition, the Kp at 24 h in data set [1] (read-out: kp (raw)) came to 0.64. Besides, in data set [1], the Kpu,u (unbound brain-to-plasma ratio) was 0.33 and the “kpu,u (code)” value is on record as “A (A represents a value of >0.3)”.
Consider `CC1(C)COCC[C@@H]1Nc1nnc(-c2ccc(C(F)F)cc2O)c2ccncc12` (single isomer, unassigned) [Compound 17], for which the pIC50 at NLRP3 is 6.48. Also, the Kp at 24 h in data set [1] (read-out: kp (code)) was more than 0.3; in data set [1] (read-out: kp (raw)), 0.69. The Kpu,u (unbound brain-to-plasma ratio) in data set [1] is 1.9. The “kpu,u (code)” value in data set [1] was “A (A represents a value of >0.3)”.
On the same counts, the results for `C[C@@H]1C[C@H](Nc2nnc(-c3ccc(Cl)cc3O)c3ccncc23)CCO1` (single isomer, unassigned) [Compound 25A*] are 6.24, more than 0.3, 1.1, 0.1 and “B (B represents a value of ≤0.3)”.
Consider `CC1(C)COC[C@H]1Nc1nnc(-c2ccc(Cl)cc2O)c2ccncc12` (single isomer, unassigned) [Compound 1B*], for which the pIC50 on NLRP3 was 5.74.
Consider `Cc1ccc(-c2nnc(N[C@@H]3CCOC(C)(C)C3)c3cnccc23)c(O)c1` (single isomer, unassigned) [Compound 14B], for which the pIC50 at NLRP3 is 5.44.
Still for that read-out and setting: in the case of `CC1(C)CC[C@@H](Nc2nnc(-c3ccc(C(F)F)cc3O)c3ccncc23)CO1` (single isomer, unassigned) [Compound 20B] it was 5.47; in that of `Cc1ccc(-c2nnc(N[C@@H]3COC(C)(C)C3)c3cnccc23)c(O)c1` [Compound 5B, (S)-2-(4-((5,5-dimethyltetrahydrofuran-3-yl)amino)pyrido[3,4-d]pyridazin-1-yl)-5-methylphenol], 6.68.
Take `CC1(C)OCC[C@@H]1Nc1nnc(-c2ccc(C(F)(F)F)cc2O)c2ccncc12` (single isomer, unassigned) [Compound 22B]: the pIC50 at NLRP3 was 5.23.
With `Cc1ccc(-c2nnc(N[C@@H]3COC(C)(C)C3)c3cnccc23)c(O)c1F` (single isomer, unassigned) [Compound 12B], the pIC50 at NLRP3 was 5.49.
In the case of `C[C@H]1COCC[C@@H]1Nc1nnc(-c2ccc(Cl)cc2O)c2ccncc12` (single isomer, unassigned) [Compound 18C*], on NLRP3, the pIC50 is 5.92.
In the case of `Oc1cc(C(F)(F)F)ccc1-c1nnc(N[C@@H]2COC3(CC3)C2)c2cnccc12` (single isomer, unassigned) [Compound 19B], the pIC50 at NLRP3 is 5.92.
Regarding `Cc1cc(O)c(-c2nnc(N[C@@H]3COC(C)(C)C3)c3cnccc23)c(F)c1` (single isomer, unassigned) [Compound 21B], the negative-log IC50 (pIC50) at NLRP3 is 5.64.
As for `C[C@@H]1COCC[C@@H]1Nc1nnc(-c2ccc(Cl)cc2O)c2ccncc12` (single isomer, unassigned) [Compound 18D*], on NLRP3, the pIC50 is 5.21.
For the compound `CN1CCO[C@H](CNc2nnc(-c3ccc(C(F)(F)F)cc3O)c3ccncc23)C1` (single isomer, unassigned) [Compound 6B*], the pIC50 at NLRP3 was 5.90.
For the compound `CC1(C)C[C@H](Nc2nnc(-c3ccc(C(F)F)cc3O)c3ccncc23)CO1` (single isomer, unassigned) [Compound 23B], the Kp at 24 h in data set [1] (read-out: kp (code)) was not above 0.3. For the same compound, in data set [1] (read-out: kp (raw)), the Kp at 24 h amounted to 0.28. For the same compound, in data set [1], the Kpu,u (unbound brain-to-plasma ratio) is 0.09 and the “kpu,u (code)” value was “B (B represents a value of ≤0.3)”.
`CC1(C)COCC[C@H]1Nc1nnc(-c2ccc(C(F)F)cc2O)c2ccncc12` (single isomer, unassigned) [Compound 17B]: the pIC50 on NLRP3 was 5.62.
For `CC1(C)C[C@H](Nc2nnc(-c3ccc(C(F)(F)F)cc3O)c3ccncc23)CCO1` (single isomer, unassigned) [Compound 11B*], the pIC50 on NLRP3 was 5.00.
For `CC1(C)C[C@H](Nc2nnc(-c3ccc(Cl)cc3O)c3ccncc23)CCO1` (single isomer, unassigned) [Compound 4B*], on NLRP3, the pIC50 is 5.77.
On the same count and under the same terms, in the case of `Cc1cc(O)c(-c2nnc(N[C@@H]3COC(C)(C)C3)c3cnccc23)c(Cl)c1` (single isomer, unassigned) [Compound 26B*] it was 5.89.

The values above are taken from patent US12331048B2, “Pyrido-[3,4-d]pyridazine amine derivatives useful as NLRP3 inhibitors” (Ventus Therapeutics U.S., Inc., priority 2022, dated 2025).
